Assay results published in patent publication EP2891491A1, “Use of (r)-phenylpiracetam for the treatment of sleep disorders” (Merz Pharma GmbH & Co. KGaA, priority 2014, dated 2015).

Tests used:
[1] = just slightly stronger with (R)- than with (S)-phenylpiracetam; cited from earlier work
[2] = test system: rats; assay: motivation tests: progressive ratio task, cost-benefit choice test, consumption test; format: in vivo
Protocol: EXAMPLE 6: Effect of (R)-phenylpiracetam in motivation tests - Figs. 5, 6, 7, 8
Methylphenidate purchased from Sigma (Taufkirchen, Germany) was dissolved in distilled water fresh for each test day. D-Amphetamine purchased from Sigma (Taufkirchen, Germany) was dissolved in 0.9% sterile NaCl solution fresh for each test day. (R)-Phenylpiracetam was dissolved in distilled water fresh for each test day.
One hundred and three male Sprague-Dawley rats (Janvier, Le Genest-St-Isle, France) weighing 225-250 g on arrival were used.
The animals were kept under standard laboratory conditions in groups of up to 4 per care with ad libitum access to water. Standard diet for rodents (Altromin) was available to the animals at 15 g per animal/day
For each test described below, two independent experiments were performed using an identical protocol. After continuous reinforcement training (CRF) training (see below) all animals were assigned to treatment groups, such that performance across all the groups was similar. The treatment groups were evenly distributed throughout the caging system.
In experiment 1 and 2 the following protocols were used:
Overview: Three tests were performed in a consecutive manner on subsequent days. On day 1-2, animals were habituated individually to Skinner boxes in two sessions, one per day, for 30 min. Animals received "free" food pellets at a random time (one pellet per minute on average). On days 3-8 animals were trained in Skinner boxes on a continuous reinforcement schedule (one pellet per lever press). On days 9-10 they were tested in the progressive ratio test (Test 1) off-drug, on days 11-12 on-drug. On day 13, a choice test (Test 2) was performed on-drug, on day 14, a consumption test (Test 3) was performed on-drug. Below, tests are described in detail.
Behavioral testing was conducted in 12 operant test chambers (Med Associates, St. Albans, USA). Each chamber was equipped with a retractable lever, a food dispenser with receptacle, an overhead house light and two stimulus lights, one above the lever and the other above the food receptacle. An infrared photocell beam detected nose pokes into the food receptacle. The apparatus was controlled by a computer system (SmartControl®-Interface and MedPC-software, Med Associates, St. Albans, USA). The light above the food receptacle indicated the delivery of a food pellet in the receptacle. Rats were first habituated to the operant boxes for two sessions (30 min each) on two consecutive days. Thereafter, animals were trained for six sessions on the CRF schedule for 30 min. Followed by 4 sessions (two session off-drug followed by two sessions on-drug) of an increasing fixed ratio (FR) schedule in steps of 5, with 3 repetitions of each step (i.e. 1-1-1; 5-5-5; 10-10-10; ...). When the required FR value of each trial was achieved the light above the food receptacle indicated the delivery of a single food pellet (45 mg, Bioserve, USA). The light remained on until the rat poked its nose in the receptacle. Lever presses while the light was on were counted as perseverative lever presses; they were counted but had no programmed consequences. […] For each session, the value of the last completed ratio (breaking point) was recorded as well as the amount of received rewards, the perseverative lever presses, the duration of the session and the latency to respond. Animals of all treatment groups received respective vehicle/drug infusions 30 min pre-test on the final two sessions involving testing under a PR schedule.
In this task the rats had the choice between working for their preferred food (Bioserve pellets) by pressing the lever on a PR schedule as described above or obtaining lab chow being freely available in a dish (about 15 g) within the operant chamber. The food receptacle and the lever were positioned on the same wall of the operant chamber, the dish containing the lab chow was situated in a corner on the opposite side of the operant chamber. […]

[3] = test system: rats; assay: locomotor activity (horizontal activity) in rats; format: in vivo; conditions: i.p. 15 min before test, starting at the dose of 100 mg/kg
Protocol: EXAMPLE 4: Effect of (R)-phenylpiracetam on locomotor activity (horizontal activity) in rats - Fig. 3
Experimentally naive adult male Sprague-Dawley rats (230-300 g) are kept four per cage, in a room with controlled temperature (21 ± 1°C) and humidity. Food and water are available ad libitum and the animals are kept under an alternating 12 h / 12 h day-night cycle (lights on at 07.00) for at least 6 days before the experiments are started. Each animal is used only once. Experimental group consist of 8 animals per group.
Horizontal locomotor activity was measured in 8 perspex boxes (ENV-515-16, 43.2 cm x 43.2 cm x 30 cm), Med-Associates Inc.) equipped with 4 arrays of 16 infrared photobeams placed 3 cm above the floor. Distance travelled (DT) was used in further analysis as a measure of locomotion.
(R)-Phenylpiracetam was administered i. p. in a volume of 2 ml/kg in saline
Data with locomotor activity were analyzed by means of Kruskal-Wallis ANOVA on ranks followed, if significant, by rank sum test.

NC(=O)CN1C[C@@H](c2ccccc2)CC1=O [(R)-phenylpiracetam]
locomotor activity in the open-field test [1]: significant increase
consumption of freely available normal food ([2]; cost-benefit choice test): does not increase
motivation, i.e. the work load animals are willing to perform to obtain more rewarding food ([2]; drug 30 min pre-test): increases motivation
effect on motivation compared with methylphenidate and amphetamine ([2]; progressive ratio and cost benefit tests): much stronger than that of methylphenidate and amphetamine
locomotor activity (horizontal activity) [3]: increases locomotor activity
